The source of these data is US7135467B2, “HIV integrase inhibitors” (priority 2003, dated 2006).

The target in this experiment is T1, HIV-integrase (recombinant integrase) (Human immunodeficiency virus type 1 group M subtype B, UniProt P12497).
T1 construct: Recombinant integrase (0.26 ng) was incubated with the beads
In words: HIV-Integrase Inhibition Activity (SPA bead strand-transfer assay). In kind it is biochemical. To be noted: recombinant integrase on biotin labeled substrate DNA/SPA beads, P33 labeled target DNA; read-out: Activity (IC50 against HIV-integrase). The procedure: To evaluate in-vitro activity against HIV-integrase, 5 pmole of biotin labeled substrate DNA was bound to 100 μg of Streptavidin coated PVT SPA beads (Amersham Pharmacia Biotech). Recombinant integrase (0.26 ng) was incubated with the beads for 90 min at 37° C. Unbound enzyme was removed by washing the complex followed by addition of inhibitors and 0.1 fmol of P33 labeled target DNA. The reaction was stopped by adding EDTA to a final concentration of 10 mM. Samples were counted in TopCountNXT (Packard) and the CPM was used as a measure of integration. The reaction condition was as described in A. Engelman and R. Craigie, J. Virol. 69, 5908–5911 (1995). The sequences of substrate and target DNA were described in Nucleic Acid Research 22, 1121–1122 (1994). Activity equal to A refers to a compound having IC50=0.003 to 0.10 μM while B and C denote compounds the following IC50=0.1 to 1.0 μM and IC50≧1.0 μM respectively.
As to `Cn1c(N2CCN(CCO)CC2)nc(C(=O)NCc2ccc(F)cc2)c(O)c1=O` [Compound 67, N-[(4-fluorophenyl)methyl]-1,6-dihydro-5-hydroxy-2-[4-(2-hydroxyethyl)-1-piperazinyl]-1-methyl-6-oxo-4-pyrimidinecarboxamide], the IC50 (in general, the midpoint of a concentration-inhibition curve) lay in the range of 3 to 100 nM.

With `Cc1cc(CNC(=O)c2nc(N3CCN(CCO)CC3)n(C)c(=O)c2O)ccc1F` [Compound 68, N-[(4-fluoro-3-methylphenyl)methyl]-1,6-dihydro-5-hydroxy-2-[4-(2-hydroxyethyl)-1-piperazinyl]-1-methyl-6-oxo-4-pyrimidinecarboxamide], the IC50 lay within 3 to 100 nM. In the case of `Cn1c(N2CCNCC2)nc(C(=O)NCc2ccc(F)cc2)c(O)c1=O` [Compound 69, N-[(4-fluorophenyl)methyl]-1,6-dihydro-5-hydroxy-1-methyl-6-oxo-2-(1-piperazinyl)-4-pyrimidinecarboxamide], the IC50 lay in the range of 100 to 1000 nM. For `Cc1cc(CNC(=O)c2nc(N3CCNCC3)n(C)c(=O)c2O)ccc1F` [Compound 70, N-[(4-fluoro-3-methylphenyl)methyl]-1,6-dihydro-5-hydroxy-1-methyl-6-oxo-2-(1-piperazinyl)-4-pyrimidinecarboxamide] the value was 3 to 100 nM; for `CC(=O)N1CCN(c2nc(C(=O)NCc3ccc(F)cc3)c(O)c(=O)n2C)CC1` [Compound 71, 2-(4-acetyl-1-piperazinyl)-N-[(4-fluorophenyl)methyl]-1,6-dihydro-5-hydroxy-1-methyl-6-oxo-4-pyrimidinecarboxamide], 3 to 100 nM; for `CC(=O)N1CCN(c2nc(C(=O)NCc3ccc(F)c(C)c3)c(O)c(=O)n2C)CC1` [Compound 72, 2-(4-acetyl-1-piperazinyl)-N-[(4-fluoro-3-methylphenyl)methyl]-1,6-dihydro-5-hydroxy-1-methyl-6-oxo-4-pyrimidinecarboxamide], 3 to 100 nM. With `CCCN1CCN(c2nc(C(=O)NCc3ccc(F)cc3)c(O)c(=O)n2C)CC1` [Compound 73, N-[(4-fluorophenyl)methyl]-1,6-dihydro-5-hydroxy-1-methyl-6-oxo-2-(4-propyl-1-piperazinyl)-4-pyrimidinecarboxamide], the IC50 was in the range of 3 to 100 nM. As to `CCCN1CCN(c2nc(C(=O)NCc3ccc(F)c(C)c3)c(O)c(=O)n2C)CC1` [Compound 74, N-[(4-fluoro-3-methylphenyl)methyl]-1,6-dihydro-5-hydroxy-1-methyl-6-oxo-2-(4-propyl-1-piperazinyl)-4-pyrimidinecarboxamide], the IC50 was in the range of 3 to 100 nM. In the case of `Cn1c(N2CCN(c3ccccn3)CC2)nc(C(=O)NCc2ccc(F)cc2)c(O)c1=O` [Compound 75, N-[(4-fluorophenyl)methyl]-1,6-dihydro-5-hydroxy-1-methyl-6-oxo-2-[4-(2-pyridinyl)-1-piperazinyl]-4-pyrimidinecarboxamide], the IC50 was in the range of 3 to 100 nM. For `Cc1cc(CNC(=O)c2nc(N3CCN(c4ccccn4)CC3)n(C)c(=O)c2O)ccc1F` [Compound 76, N-[(4-fluoro-3-methylphenyl)methyl]-1,6-dihydro-5-hydroxy-1-methyl-6-oxo-2-[4-(2-pyridinyl)-1-piperazinyl]-4-pyrimidinecarboxamide] the value was 3 to 100 nM. To `Cn1c(N2CCN(c3ncccn3)CC2)nc(C(=O)NCc2ccc(F)cc2)c(O)c1=O` [Compound 77, N-[(4-fluorophenyl)methyl]-1,6-dihydro-5-hydroxy-1-methyl-6-oxo-2-[4-(2-pyrimidinyl)-1-piperazinyl]-4-pyrimidinecarboxamide] belongs 3 to 100 nM. To `Cc1cc(CNC(=O)c2nc(N3CCN(c4ncccn4)CC3)n(C)c(=O)c2O)ccc1F` [Compound 78, N-[(4-fluoro-3-methylphenyl)methyl]-1,6-dihydro-5-hydroxy-1-methyl-6-oxo-2-[4-(2-pyrimidinyl)-1-piperazinyl]-4-pyrimidinecarboxamide] belongs 3 to 100 nM; to `Cn1c(N2CCN(c3ccccc3)CC2)nc(C(=O)NCc2ccc(F)cc2)c(O)c1=O` [Compound 79, N-[(4-fluorophenyl)methyl]-1,6-dihydro-5-hydroxy-1-methyl-6-oxo-2-(4-phenyl-1-piperazinyl)-4-pyrimidinecarboxamide], 3 to 100 nM. Regarding `Cc1cc(CNC(=O)c2nc(N3CCN(c4ccccc4)CC3)n(C)c(=O)c2O)ccc1F` [Compound 80, N-[(4-fluoro-3-methylphenyl)methyl]-1,6-dihydro-5-hydroxy-1-methyl-6-oxo-2-(4-phenyl-1-piperazinyl)-4-pyrimidinecarboxamide], the IC50 was in the range of 3 to 100 nM. In the case of `Cn1c(N2CCN(C(=O)N3CCNC3=O)CC2)nc(C(=O)NCc2ccc(F)cc2)c(O)c1=O` [Compound 85, N-[(4-fluorophenyl)methyl]-1,6-dihydro-5-hydroxy-1-methyl-6-oxo-2-[4-[(2-oxo-1-imidazolidinyl)carbonyl]-1-piperazinyl]-4-pyrimidinecarboxamide], the half-maximal inhibitory concentration (IC50) lay within 3 to 100 nM. On to `Cc1cc(CNC(=O)c2nc(N3CCN(C(=O)N4CCNC4=O)CC3)n(C)c(=O)c2O)ccc1F` [Compound 86, N-[(4-fluoro-3-methylphenyl)methyl]-1,6-dihydro-5-hydroxy-1-methyl-6-oxo-2-[4-[(2-oxo-1-imidazolidinyl)carbonyl]-1-piperazinyl]-4-pyrimidinecarboxamide], for which the IC50 lay within 3 to 100 nM. Take `CNC(=O)N1CCN(c2nc(C(=O)NCc3ccc(F)cc3)c(O)c(=O)n2C)CC1` [Compound 87, N-[(4-fluorophenyl)methyl]-1,6-dihydro-5-hydroxy-1-methyl-2-[4-[(methylamino)carbonyl]-1-piperazinyl]-6-oxo-4-pyrimidinecarboxamide]: the IC50 was 3 to 100 nM. For the compound `CNC(=O)N1CCN(c2nc(C(=O)NCc3ccc(F)c(C)c3)c(O)c(=O)n2C)CC1` [Compound 88, N-[(4-fluoro-3-methylphenyl)methyl]-1,6-dihydro-5-hydroxy-1-methyl-2-[4-[(methylamino)carbonyl]-1-piperazinyl]-6-oxo-4-pyrimidinecarboxamide], the IC50 was 3 to 100 nM. For `Cn1c(N2CCCC2)nc(C(=O)NCc2ccc(F)cc2)c(O)c1=O` [Compound 91, N-[(4-fluorophenyl)methyl]-1,6-dihydro-5-hydroxy-1-methyl-6-oxo-2-(1-pyrrolidinyl)-4-pyrimidinecarboxamide] the value was 3 to 100 nM; for `Cn1c(N2CCC2)nc(C(=O)NCc2ccc(F)cc2)c(O)c1=O` [Compound 92, 2-(1-azetidinyl)-N-[(4-fluorophenyl)methyl]-1,6-dihydro-5-hydroxy-1-methyl-6-oxo-4-pyrimidinecarboxamide], 3 to 100 nM. For the compound `Cc1cc(CNC(=O)c2nc(N3CCC3)n(C)c(=O)c2O)ccc1F` [Compound 93, 2-(1-azetidinyl)-N-[(4-fluoro-3-methylphenyl)methyl]-1,6-dihydro-5-hydroxy-1-methyl-6-oxo-4-pyrimidinecarboxamide], the IC50 was 3 to 100 nM.

In the case of `Cn1c(N2CCC(C(N)=O)CC2)nc(C(=O)NCc2ccc(F)cc2)c(O)c1=O` [Compound 94, 2-[4-(aminocarbonyl)-1-piperidinyl]-N-[(4-fluorophenyl)methyl]-1,6-dihydro-5-hydroxy-1-methyl-6-oxo-4-pyrimidinecarboxamide], the IC50 lay within 3 to 100 nM. For `Cn1c(N2CCC[C@H]2C(N)=O)nc(C(=O)NCc2ccc(F)cc2)c(O)c1=O` [Compound 95, 2-[(2S)-2-(aminocarbonyl)-1-pyrrolidinyl]-N-[(4-fluorophenyl)methyl]-1,6-dihydro-5-hydroxy-1-methyl-6-oxo-4-pyrimidinecarboxamide], the IC50 was in the range of 3 to 100 nM. For the compound `Cn1c(N2CCCCC2CO)nc(C(=O)NCc2ccc(F)cc2)c(O)c1=O` (centres unmarked) [Compound 96, 4-pyrimidineN-[(4-fluorophenyl)methyl]-1,6-dihydro-5-hydroxy-2-[2-(hydroxymethyl)-1-piperidinyl]-1-methyl-6-oxo-carboxamide], the IC50 lay in the range of 100 to 1000 nM. To `Cc1cc(CNC(=O)c2nc(N3CCCCC3CO)n(C)c(=O)c2O)ccc1F` (centres unmarked) [Compound 97, N-[(4-fluoro-3-methylphenyl)methyl]-1,6-dihydro-5-hydroxy-2-[2-(hydroxymethyl)-1-piperidinyl]-1-methyl-6-oxo-4-pyrimidinecarboxamide] belongs 3 to 100 nM; to `Cn1c(N2CCCCC2CCO)nc(C(=O)NCc2ccc(F)cc2)c(O)c1=O` (centres unmarked) [Compound 98, N-[(4-fluorophenyl)methyl]-1,6-dihydro-5-hydroxy-2-[2-(2-hydroxyethyl)-1-piperidinyl]-1-methyl-6-oxo-4-pyrimidinecarboxamide], 3 to 100 nM. As to `Cc1cc(CNC(=O)c2nc(N3CCCCC3CCO)n(C)c(=O)c2O)ccc1F` (centres unmarked) [Compound 99, N-[(4-fluoro-3-methylphenyl)methyl]-1,6-dihydro-5-hydroxy-2-[2-(2-hydroxyethyl)-1-piperidinyl]-1-methyl-6-oxo-4-pyrimidinecarboxamide], the IC50 was 3 to 100 nM. For `Cn1c(-n2ncccc2=O)nc(C(=O)NCc2ccc(F)cc2)c(O)c1=O` [Compound 100, N-[(4-fluorophenyl)methyl]-1,6-dihydro-5-hydroxy-1-methyl-6-oxo-2-(6-oxo-1(6H)-pyridazinyl)-4-pyrimidinecarboxamide] the value was 100 to 1000 nM. For the compound `Cc1cc(CNC(=O)c2nc(-n3ncccc3=O)n(C)c(=O)c2O)ccc1F` [Compound 101, N-[(4-fluoro-3-methylphenyl)methyl]-1,6-dihydro-5-hydroxy-1-methyl-6-oxo-2-(6-oxo-1(6H)-pyridazinyl)-4-pyrimidinecarboxamide], the IC50 was 3 to 100 nM.
